Results from US20140187587A1, “SYNERGISTIC FUNGICIDAL MIXTURES FOR FUNGAL CONTROL IN CEREALS” (Dow Agrosciences LLC, priority 2012, published 2014).

Experiments:
[1] = test system: Puccinia recondita (PUCCRT); test: 3-day curative (3DC) test of fungicide mixtures vs. wheat brown rust; type: in vivo; settings: single active, wheat (Yuma) plants
Experimental: (§1) For the mixture studies with the compound of Formula I: Treatments consisted of fungicides, including the compound of Formula I and fluxapyroxad. Technical grades of materials were dissolved in acetone to make stock solutions, which were then used to perform 4-fold dilutions in acetone for each individual fungicide component or for the two-way mixture. Desired fungicide rates were obtained after mixing dilutions with 9 volumes of water containing 110 parts per million (ppm) Triton X-100. The fungicide solutions (20 milliliters (mL)) were applied to 12 pots of plants using an automated booth sprayer, which utilized two 6218-1/4 JAUPM spray nozzles operating at 20 pounds per square inch (psi) set at opposing angles to cover both leaf surfaces. All sprayed plants were allowed to air dry prior to further handling. Control plants were sprayed in the same manner with a solvent blank.
Evaluation of Curative Activity of Fungicide Mixtures vs. Wheat Brown Rust (Puccinia recondita; Bayer Code: PUCCRT).
Yuma wheat seedlings were grown as described above and inoculated with an aqueous spore suspension of Puccinia recondita 3 days prior to fungicide treatment (3DC). After inoculation, plants were placed in a dew room for 1 day to allow for infection to occur. The plants were then placed in the greenhouse for symptom development to occur, which in the case of PUCCRT typically required 7-10 days.
(§2) When disease severity reached 50-100% on the control plants, infection levels were assessed on treated plants visually and scored on a scale of 0 to 100 percent. The percentage of disease control was then calculated using the ratio of disease on treated plants relative to control plants.
(§3) The Colby equation was used to determine the fungicidal effects expected from the mixtures. (See Colby, S. R. Calculation of the synergistic and antagonistic response of herbicide combinations. Weeds 1967, 15, 20-22.)
(§4) The following equation was used to calculate the expected activity of mixtures containing two active ingredients, A and B:
(§5) A=observed efficacy of active component A at the same concentration as used in the mixture;
(§6) B=observed efficacy of active component B at the same concentration as used in the mixture.

[2] = test system: Septoria tritici (SEPTTR); test: 1-day protectant (1DP) test of fungicide mixtures vs. leaf blotch of wheat; type: in vivo, Mycosphaerella graminicola; anamorph: Septoria tritici; settings: single active, wheat (Yuma) plants
Experimental: as §1
Evaluation of Curative and Protectant Activity of Fungicide Mixtures vs. Leaf Blotch of Wheat (Mycosphaerella graminicola; Anamorph: Septoria tritici; Bayer Code: SEPTTR).
Wheat plants (variety Yuma) were grown from seed in a greenhouse in plastic pots with a surface area of 27.5 square centimeters (cm^2) containing 50% mineral soil/50% soil-less Metro mix, with 8-12 seedlings per pot. The plants were utilized for testing when the first leaf was fully emerged, which typically occurred 7-8 days after planting. Test plants were inoculated with an aqueous spore suspension of Septoria tritici either (a) 3 days prior to fungicide treatments (3-day curative test, 3DC) or (b) 1 day after fungicide treatments (1-day protectant test, 1DP). After inoculation the plants were placed in a dew room from 1-3 days to allow for infection to occur. The plants were then placed in the greenhouse for symptom development to occur, which in the case of SEPTTR typically required 25-30 days.
as §2, §3, §4, §5, §6

| Compound | % DC Obs (percent disease control observed), PUCCRT 3DC ([1]; application rate 0.1 ppm) [%] | % DC Obs (percent disease control observed), PUCCRT 3DC ([1]; application rate 0.39 ppm) [%] | % DC Obs (percent disease control observed), PUCCRT 3DC ([1]; application rate 1.56 ppm) [%] | % DC Obs (percent disease control observed), PUCCRT 3DC ([1]; application rate 6.25 ppm) [%] | % DC Obs (percent disease control observed), SEPTTR 1DP ([2]; application rate 0.1 ppm) [%] | % DC Obs (percent disease control observed), SEPTTR 1DP ([2]; application rate 0.39 ppm) [%] | % DC Obs (percent disease control observed), SEPTTR 1DP ([2]; application rate 1.56 ppm) [%] | % DC Obs (percent disease control observed), SEPTTR 1DP ([2]; application rate 6.25 ppm) [%] |
| --- | --- | --- | --- | --- | --- | --- | --- | --- |
| COc1ccnc(C(=O)N[C@H]2COC(=O)[C@H](Cc3ccccc3)[C@@H](OC(=O)C(C)C)[C@H](C)OC2=O)c1OCOC(=O)C(C)C [Compound I, (3S,6S,7R,8R)-8-benzyl-3-(3-((isobutyryloxy)methoxy)-4-methoxypicolinamido)-6-methyl-4,9-dioxo-1,5-dioxonan-7-yl isobutyrate] | 2 | 0 | 12 | 98 | 0 | 0 | 2 | 93 |
| Cn1cc(C(=O)Nc2ccccc2-c2cc(F)c(F)c(F)c2)c(C(F)F)n1 [Fluxapyroxad, 3-(difluoromethyl)-1-methyl-N-(3′,4′,5′-trifluorobiphenyl-2-yl)pyrazole-4-carboxamide] | 0 | 0 | 86 | 100 | 0 | 0 | 0 | 94 |
